Literature values, collected in patent US20170252373A1, “COMBINATION THERAPY FOR THE TREATMENT OF HAIR LOSS” (priority 2016, published 2017).

Test system: male-pattern hair loss
Details: within three months of starting treatment; also at 24 and 48 months with continued use

For CC(C)(C)NC(=O)[C@H]1CC[C@H]2[C@@H]3CC[C@H]4NC(=O)C=C[C@]4(C)[C@H]3CC[C@]12C [finasteride], the “hair on the scalp” value is listed as “Increased hair on the scalp”.
